Patent US8802895B2, “Amide derivatives of benzene-sulfonanilide, pharmaceutical composition thereof and method for cancer treatment using the same” (Cleveland State University, priority 2010, dated 2014)

What was measured:
[1] = tested on: LOX IMVI; assay: NCIDTP 60 cancer cell lines screening, Melanoma panel; assay type: cell-based
[2] = tested on: M14; assay: as above; assay type: cell-based
[3] = tested on: SK-MEL-5; assay: as above; assay type: cell-based
[4] = tested on: UACC-257; assay: as above; assay type: cell-based
[5] = tested on: A498; assay: NCIDTP 60 cancer cell lines screening, Renal Cancer panel; assay type: cell-based
[6] = tested on: CAKI-1; assay: as above; assay type: cell-based
[7] = tested on: RXF 393; assay: as above; assay type: cell-based
[8] = tested on: SN12C; assay: as above; assay type: cell-based
[9] = tested on: HT29 colon cancer xenograft; assay: In vivo study, HT29 colon cancer xenograft model (FIG. 11); design: species or system BALB/c athymic nude mice; details: HT29 xenograft in nude mice, 5 mg/kg/day, i.p., 20 days
Description: HT29 colon cancer xenograft model is a generally accepted in vivo cancer model and the formed tumor grows very aggressively. […] In the experiment, HT29 xenografts were established in ovariectomized 5- to 6-week-old BALB/c athymic nude mice (Case Western Reserve University animal facility). When tumors reach 150-200 mm^3 (i.e., in 2-4 weeks), the animals are randomly allocated (n=3 per group) to be treated with the compounds or vehicle (1% Tween 80) administered via i.p. Tumor growth was assessed and tumor weights were measured at the end of the experiment after the mice were killed. The animal care was in accordance with institutional guidelines.

With `Cc1ccc(C)c(COc2cc(NC(=O)c3ccc4c(c3)OCO4)ccc2N(C)S(C)(=O)=O)c1` [Compound #10, Benzo[1,3]dioxole-5-carboxylic acid [3-(2,5-dimethyl-benzyloxy)-4-(methanesulfonyl-methyl-amino)-phenyl]-amide] the “Percent Growth” value ([1]; Log10 Concentration −5.0 Molar) was 21%, the “Percent Growth” value ([1]; Log10 Concentration −6.0 Molar) was 13% and the “Percent Growth” value ([1]; Log10 Concentration −7.0 Molar) was 41%. The “Percent Growth” value ([1]; Log10 Concentration −8.0 Molar) was 91%, the GI50 ([2]; Homo sapiens, M14) was 75.7 nM and the CC50 ([2]; Homo sapiens, M14, read-out: LC50) was greater than 100000 nM. The TGI ([2]; M14) was 6.69E−7 Molar, the “Percent Growth” value ([2]; M14, Log10 Concentration −4.0 Molar) was −29% and the “Percent Growth” value ([2]; M14, Log10 Concentration −5.0 Molar) was −45%. The “Percent Growth” value ([2]; M14, Log10 Concentration −6.0 Molar) was −9%, the “Percent Growth” value ([2]; M14, Log10 Concentration −7.0 Molar) was 45% and the “Percent Growth” value ([2]; M14, Log10 Concentration −8.0 Molar) was 90%. The GI50 ([3]; Homo sapiens, SK-MEL-5) was 253 nM, the CC50 ([3]; Homo sapiens, SK-MEL-5, read-out: LC50) was 34100 nM and the TGI ([3]; SK-MEL-5) was 1.65E−6 Molar. For the same compound, the “Percent Growth” value ([3]; SK-MEL-5, Log10 Concentration −4.0 Molar) was −57%, the “Percent Growth” value ([3]; SK-MEL-5, Log10 Concentration −5.0 Molar) was −42% and the “Percent Growth” value ([3]; SK-MEL-5, Log10 Concentration −6.0 Molar) was 12%. The “Percent Growth” value ([3]; SK-MEL-5, Log10 Concentration −7.0 Molar) was 76%, the “Percent Growth” value ([3]; SK-MEL-5, Log10 Concentration −8.0 Molar) was 90% and the GI50 ([4]; Homo sapiens, UACC-257) was 144 nM. For the same compound, the CC50 ([4]; Homo sapiens, UACC-257, read-out: LC50) was greater than 100000 nM, the TGI ([4]; UACC-257) was greater than 1.00E−4 Molar and the “Percent Growth” value ([4]; UACC-257, Log10 Concentration −4.0 Molar) was 13%. The “Percent Growth” value ([4]; UACC-257, Log10 Concentration −5.0 Molar) was 29%, the “Percent Growth” value ([4]; UACC-257, Log10 Concentration −6.0 Molar) was 32% and the “Percent Growth” value ([4]; UACC-257, Log10 Concentration −7.0 Molar) was 53%. For the same compound, the “Percent Growth” value ([4]; UACC-257, Log10 Concentration −8.0 Molar) was 88%, the TGI ([5]; A498) was 8.53E−7 Molar and the “Percent Growth” value ([5]; A498, Log10 Concentration −4.0 Molar) was −5%. For the same compound, the “Percent Growth” value ([5]; A498, Log10 Concentration −5.0 Molar) was −7%, the “Percent Growth” value ([5]; A498, Log10 Concentration −6.0 Molar) was −4% and the “Percent Growth” value ([5]; A498, Log10 Concentration −7.0 Molar) was 55%. For the same compound, the “Percent Growth” value ([5]; A498, Log10 Concentration −8.0 Molar) was 86%, the GI50 ([5]; Homo sapiens, A498) was 122 nM and the CC50 ([5]; Homo sapiens, A498, read-out: LC50) was greater than 100000 nM. The TGI ([6]; CAKI-1) was greater than 1.00E−4 Molar, the “Percent Growth” value ([6]; CAKI-1, Log10 Concentration −4.0 Molar) was 5% and the “Percent Growth” value ([6]; CAKI-1, Log10 Concentration −5.0 Molar) was 2%. The “Percent Growth” value ([6]; CAKI-1, Log10 Concentration −6.0 Molar) was 16%, the “Percent Growth” value ([6]; CAKI-1, Log10 Concentration −7.0 Molar) was 54% and the “Percent Growth” value ([6]; CAKI-1, Log10 Concentration −8.0 Molar) was 100%. It also gave a GI50 ([6]; Homo sapiens, CAKI-1) of 126 nM, a CC50 ([6]; Homo sapiens, CAKI-1, read-out: LC50) greater than 100000 nM and a GI50 ([7]; Homo sapiens, RXF 393) of 128 nM. For the same compound, the CC50 ([7]; Homo sapiens, RXF 393, read-out: LC50) was greater than 100000 nM, the TGI ([7]; RXF 393) was 4.03E−7 Molar and the “Percent Growth” value ([7]; RXF 393, Log10 Concentration −4.0 Molar) was −18%. For the same compound, the “Percent Growth” value ([7]; RXF 393, Log10 Concentration −5.0 Molar) was −20%, the “Percent Growth” value ([7]; RXF 393, Log10 Concentration −6.0 Molar) was −39% and the “Percent Growth” value ([7]; RXF 393, Log10 Concentration −7.0 Molar) was 61%. For the same compound, the “Percent Growth” value ([7]; RXF 393, Log10 Concentration −8.0 Molar) was 81%, the TGI [8] was greater than 1.00E−4 Molar and the GI50 ([8]; Homo sapiens) was 472 nM. The CC50 ([8]; Homo sapiens, read-out: LC50) was greater than 100000 nM, the “Percent Growth” value ([8]; Log10 Concentration −4.0 Molar) was 23% and the “Percent Growth” value ([8]; Log10 Concentration −5.0 Molar) was 22%. The “Percent Growth” value ([8]; Log10 Concentration −6.0 Molar) was 30%, the “Percent Growth” value ([8]; Log10 Concentration −7.0 Molar) was 91% and the “Percent Growth” value ([8]; Log10 Concentration −8.0 Molar) was 96%. For the same compound, the tumor growth [9] was “significantly inhibited the tumor growth”.
